From ChEMBL document CHEMBL1158408, “Large-scale application of high-throughput molecular mechanics with Poisson-Boltzmann surface area for routine physics-based scoring of protein-ligand complexes” (J Med Chem, 2009)

Molecular target: Urokinase-type plasminogen activator (Homo sapiens, UniProt P00749)

SMILES	Ki
N=C(N)c1ccc2cc(C(=O)Nc3ccc4c(c3)CCNC4)ccc2c1	0.0158 µM
Nc1ccc2nc(N)ccc2c1	100 µM
C1=Nc2ccccc2CN1	50.1 µM
Nc1ccc2ccc(C(=O)NCc3ccccc3)cc2n1	10 µM
N=C(N)c1ccc2cc(/C=C/CCc3cccnc3)cc(Br)c2c1	3.16 µM
N#Cc1ccccc1COc1cccc2ccc(N)nc12	31.6 µM
C=CCN1CCc2cc(NC(=O)c3ccc4cc(C(=N)N)ccc4c3)ccc2C1	0.1 µM
Nc1ccc2cc(NCCc3ccccc3)cc(Nc3ncccn3)c2n1	5.01 µM
Nc1ccc2cc(NC(=O)CCc3ccccc3)ccc2n1	10 µM
CN(C)Cc1ccc(/C=C/c2cc(Br)c3cc(C(=N)N)ccc3c2)o1	1.26 µM
Nc1ccc2cc(NC(=O)c3ccccc3)ccc2n1	10 µM
COc1cc(Nc2ncccn2)c2nc(N)ccc2c1	39.8 µM
Nc1ccc2c(O)cccc2c1	50.1 µM
N=C(N)c1ccc2cccc(NC(=O)OCc3ccccc3)c2c1	0.158 µM
Nc1ccc2cc(O)cc(Nc3ncccn3)c2n1	3.98 µM
Cc1ccc(CN2CCc3cc(NC(=O)c4ccc5cc(C(=N)N)ccc5c4)ccc3C2)cc1	0.126 µM
N=C(N)c1ccc2cccc(C(=O)NO)c2c1	6.31 µM
N=C(N)c1ccc2cc(C(=O)Nc3ccc4c(c3)CCC4)ccc2c1	0.398 µM
N=C(N)c1ccc2cc(CCc3ccc(CN4CCCC4)cc3)cc(Nc3ncccn3)c2c1	0.0316 µM
CC(C)C1=NCCc2ccc(NC(=O)c3cc(Nc4ncccn4)c4cc(C(=N)N)ccc4c3)cc21	0.00158 µM
N=C(N)c1ccc2cc(C(=O)Nc3ccc4c(c3)OCO4)ccc2c1	0.251 µM
CCC(C)/C=C/c1cc(C(=O)OC)cc2ccc(C(=N)N)cc12 (configuration not stated)	0.398 µM
